Test results reported in ChEMBL document CHEMBL1629662, “Antimicrobial activity of prulifloxacin tested against a worldwide collection of gastroenteritis-producing pathogens, including those causing traveler's diarrhea” (2009).
Values after ≈ are worked out from the molar mass of the structure shown.

Key:
Vibrio cholerae [1] = assay: Antibacterial activity against Vibrio cholerae by broth microdilution method; format: functional
Vibrio vulnificus [2] = assay: Antibacterial activity against Vibrio vulnificus assessed as percent susceptible isolates by broth microdilution method; format: functional
Aeromonas sobria [3] = assay: Antibacterial activity against Aeromonas sobria assessed as percent resistant isolates by broth microdilution method; format: functional
Yersinia enterocolitica [4] = assay: Antibacterial activity against Yersinia enterocolitica assessed as percent susceptible isolates by broth microdilution method; format: functional
Vibrio parahaemolyticus [5] = assay: Antibacterial activity against Vibrio parahaemolyticus assessed as percent resistant isolates by broth microdilution method; format: functional
Escherichia coli [6] = assay: Antibacterial activity against Escherichia coli assessed as percent resistant isolates by broth microdilution method; format: functional
Aeromonas veronii [7] = assay: Antibacterial activity against Aeromonas veronii assessed as percent susceptible isolates by broth microdilution method; format: functional
Aeromonas sobria [8] = assay: Antibacterial activity against Aeromonas sobria assessed as percent susceptible isolates by broth microdilution method; format: functional
Vibrio alginolyticus [9] = assay: Antibacterial activity against Vibrio alginolyticus assessed as percent susceptible isolates by broth microdilution method; format: functional
[10] = Antibacterial activity against Salmonella enterica serovar Heidelberg by broth microdilution method; format: functional, Salmonella enterica subsp. enterica serovar Heidelberg
Salmonella typhimurium [11] = assay: Antibacterial activity against Salmonella enterica serovar Typhimurium assessed as percent resistant isolates by broth microdilution method; format: functional, Salmonella enterica subsp. enterica serovar Typhimurium; conditions: pooled result: one value given for 8 cell lines, strains, targets or settings
Salmonella typhimurium [12] = assay: Antibacterial activity against Salmonella enterica serovar Typhimurium by broth microdilution method; format: functional, Salmonella enterica subsp. enterica serovar Typhimurium
Shigella dysenteriae = assay: Antibacterial activity against Shigella dysenteriae by broth microdilution method; format: functional
Vibrio alginolyticus [13] = assay: Antibacterial activity against Vibrio alginolyticus assessed as percent resistant isolates by broth microdilution method; format: functional
Salmonella enteritidis [14] = assay: Antibacterial activity against Salmonella enterica serovar Enteritidis assessed as percent susceptible isolates by broth microdilution method; format: functional, Salmonella enterica subsp. enterica serovar Enteritidis; conditions: pooled result: one value given for 5 cell lines, strains, targets or settings
Plesiomonas shigelloides [15] = assay: Antibacterial activity against Plesiomonas shigelloides by broth microdilution method; format: functional
Vibrio alginolyticus [16] = assay: Antibacterial activity against Vibrio alginolyticus by broth microdilution method; format: functional
Shigella boydii [17] = assay: Antibacterial activity against Shigella boydii by broth microdilution method; format: functional
Vibrio parahaemolyticus [18] = assay: Antibacterial activity against Vibrio parahaemolyticus by broth microdilution method; format: functional
Vibrio cholerae [19] = assay: Antibacterial activity against Vibrio cholerae assessed as percent susceptible isolates by broth microdilution method; format: functional
Yersinia enterocolitica [20] = assay: Antibacterial activity against Yersinia enterocolitica by broth microdilution method; format: functional
Aeromonas veronii [21] = assay: Antibacterial activity against Aeromonas veronii by broth microdilution method; format: functional
Campylobacter jejuni = assay: Antibacterial activity against Campylobacter jejuni by broth microdilution method; format: functional
Campylobacter coli = assay: Antibacterial activity against Campylobacter coli by broth microdilution method; format: functional
Yersinia enterocolitica [22] = assay: Antibacterial activity against Yersinia enterocolitica assessed as percent resistant isolates by broth microdilution method; format: functional
Aeromonas caviae [23] = assay: Antibacterial activity against Aeromonas caviae by broth microdilution method; format: functional
Vibrio fluvialis [24] = assay: Antibacterial activity against Vibrio fluvialis by broth microdilution method; format: functional
Vibrio fluvialis [25] = assay: Antibacterial activity against Vibrio fluvialis assessed as percent resistant isolates by broth microdilution method; format: functional
Vibrio vulnificus [26] = assay: Antibacterial activity against Vibrio vulnificus by broth microdilution method; format: functional
Plesiomonas shigelloides [27] = assay: Antibacterial activity against Plesiomonas shigelloides assessed as percent resistant isolates by broth microdilution method; format: functional
Aeromonas caviae [28] = assay: Antibacterial activity against Aeromonas caviae assessed as percent susceptible isolates by broth microdilution method; format: functional
Aeromonas caviae [29] = assay: Antibacterial activity against Aeromonas caviae assessed as percent resistant isolates by broth microdilution method; format: functional
Salmonella typhi = assay: Antibacterial activity against Salmonella enterica serovar Typhi by broth microdilution method; format: functional, Salmonella enterica subsp. enterica serovar Typhi
Aeromonas hydrophila [30] = assay: Antibacterial activity against Aeromonas hydrophila by broth microdilution method; format: functional
[31] = Antibacterial activity against Salmonella enterica serovar Newport by broth microdilution method; format: functional, Salmonella enterica subsp. enterica serovar Newport
Vibrio vulnificus [32] = assay: Antibacterial activity against Vibrio vulnificus assessed as percent resistant isolates by broth microdilution method; format: functional
Salmonella enteritidis [33] = assay: Antibacterial activity against Salmonella enterica serovar Enteritidis by broth microdilution method; format: functional, Salmonella enterica subsp. enterica serovar Enteritidis
Shigella flexneri = assay: Antibacterial activity against Shigella flexneri by broth microdilution method; format: functional
Aeromonas hydrophila [34] = assay: Antibacterial activity against Aeromonas hydrophila assessed as percent susceptible isolates by broth microdilution method; format: functional
Shigella sonnei [35] = assay: Antibacterial activity against Shigella sonnei by broth microdilution method; format: functional
Vibrio sp. [36] = assay: Antibacterial activity against Vibrio sp. assessed as percent susceptible isolates by broth microdilution method; format: functional
Escherichia coli [37] = assay: Antibacterial activity against Escherichia coli assessed as percent susceptible isolates by broth microdilution method; format: functional
Vibrio sp. [38] = assay: Antibacterial activity against Vibrio sp. assessed as percent resistant isolates by broth microdilution method; format: functional
Escherichia coli [39] = assay: Antibacterial activity against Escherichia coli by broth microdilution method; format: functional
Plesiomonas shigelloides [40] = assay: Antibacterial activity against Plesiomonas shigelloides assessed as percent susceptible isolates by broth microdilution method; format: functional
Salmonella paratyphi = assay: Antibacterial activity against Salmonella enterica serovar Paratyphi by broth microdilution method; format: functional, Salmonella enterica subsp. enterica serovar Paratyphi A
[41] = Antibacterial activity against Salmonella enterica serovar Virchow by broth microdilution method; format: functional, Salmonella enterica subsp. enterica serovar Virchow
Shigella sonnei [42] = assay: Antibacterial activity against Shigella sonnei assessed as percent resistant isolates by broth microdilution method; format: functional; conditions: pooled result: one value given for 4 cell lines, strains, targets or settings
Shigella boydii [43] = assay: Antibacterial activity against Shigella boydii assessed as percent susceptible isolates by broth microdilution method; format: functional; conditions: pooled result: one value given for 3 cell lines, strains, targets or settings
[44] = system: Yersinia pseudotuberculosis; assay: Antibacterial activity against Yersinia pseudotuberculosis by broth microdilution method; format: functional
[45] = system: Yersinia pseudotuberculosis; assay: Antibacterial activity against Yersinia pseudotuberculosis assessed as percent susceptible isolates by broth microdilution method; format: functional
Vibrio fluvialis [46] = assay: Antibacterial activity against Vibrio fluvialis assessed as percent susceptible isolates by broth microdilution method; format: functional
Aeromonas veronii [47] = assay: Antibacterial activity against Aeromonas veronii assessed as percent resistant isolates by broth microdilution method; format: functional
Vibrio parahaemolyticus [48] = assay: Antibacterial activity against Vibrio parahaemolyticus assessed as percent susceptible isolates by broth microdilution method; format: functional
Aeromonas sobria [49] = assay: Antibacterial activity against Aeromonas sobria by broth microdilution method; format: functional
Vibrio cholerae [50] = assay: Antibacterial activity against Vibrio cholerae assessed as percent resistant isolates by broth microdilution method; format: functional
Aeromonas hydrophila [51] = assay: Antibacterial activity against Aeromonas hydrophila assessed as percent resistant isolates by broth microdilution method; format: functional
Vibrio sp. [52] = assay: Antibacterial activity against Vibrio sp. by broth microdilution method; format: functional

SMILES: CC1(C)S[C@@H]2[C@H](NC(=O)[C@H](N)c3ccccc3)C(=O)N2[C@H]1C(=O)O [AMPICILLIN]
- MIC50 (Vibrio cholerae [1]): 2 µg/mL (≈ 5.72 µM)
- MIC90 (Vibrio cholerae [1]): 8 µg/mL (≈ 22.9 µM)
- Activity (Vibrio vulnificus [2]): 90%
- Activity (Aeromonas sobria [3]): 98%
- Activity (Yersinia enterocolitica [4]): 6.5%
- Activity (Vibrio parahaemolyticus [5]): 0%
- Activity (Escherichia coli [6]): 37%
- Activity (Aeromonas veronii [7]): 1%
- Activity (Aeromonas sobria [8]): 1%
- Activity (Vibrio alginolyticus [9]): 90%
- MIC90 [10]: > 256 µg/mL
- Activity (Salmonella typhimurium [11]): 22.8%
- MIC50 (Salmonella typhimurium [12]): 1 µg/mL (≈ 2.86 µM)
- MIC90 (Salmonella typhimurium [12]): > 256 µg/mL
- MIC50 (Shigella dysenteriae): 128 µg/mL (≈ 366 µM)
- MIC90 (Shigella dysenteriae): > 256 µg/mL
- Activity (Vibrio alginolyticus [13]): 0%
- Activity (Salmonella enteritidis [14]): 77.2%
- MIC (Plesiomonas shigelloides [15]): 64 µg/mL (≈ 183 µM)
- MIC50 (Plesiomonas shigelloides [15]): 64 µg/mL (≈ 183 µM)
- MIC50 (Vibrio alginolyticus [16]): 2 µg/mL (≈ 5.72 µM)
- MIC90 (Vibrio alginolyticus [16]): 8 µg/mL (≈ 22.9 µM)
- MIC50 (Shigella boydii [17]): 128 µg/mL (≈ 366 µM)
- MIC90 (Shigella boydii [17]): > 256 µg/mL
- MIC50 (Vibrio parahaemolyticus [18]): 2 µg/mL (≈ 5.72 µM)
- MIC90 (Vibrio parahaemolyticus [18]): 8 µg/mL (≈ 22.9 µM)
- Activity (Vibrio cholerae [19]): 90%
- MIC50 (Yersinia enterocolitica [20]): 32 µg/mL (≈ 91.6 µM)
- MIC90 (Yersinia enterocolitica [20]): 32 µg/mL (≈ 91.6 µM)
- MIC50 (Aeromonas veronii [21]): > 256 µg/mL
- MIC90 (Aeromonas veronii [21]): > 256 µg/mL
- MIC50 (Campylobacter jejuni): 2 µg/mL (≈ 5.72 µM)
- MIC90 (Campylobacter jejuni): 32 µg/mL (≈ 91.6 µM)
- MIC50 (Campylobacter coli): 2 µg/mL (≈ 5.72 µM)
- MIC90 (Campylobacter coli): 32 µg/mL (≈ 91.6 µM)
- Activity (Yersinia enterocolitica [22]): 91.3%
- MIC50 (Aeromonas caviae [23]): > 256 µg/mL
- MIC90 (Aeromonas caviae [23]): > 256 µg/mL
- MIC50 (Vibrio fluvialis [24]): 2 µg/mL (≈ 5.72 µM)
- MIC90 (Vibrio fluvialis [24]): 8 µg/mL (≈ 22.9 µM)
- Activity (Vibrio fluvialis [25]): 0%
- MIC50 (Vibrio vulnificus [26]): 2 µg/mL (≈ 5.72 µM)
- MIC90 (Vibrio vulnificus [26]): 8 µg/mL (≈ 22.9 µM)
- Activity (Plesiomonas shigelloides [27]): 100%
- Activity (Aeromonas caviae [28]): 1%
- Activity (Aeromonas caviae [29]): 98%
- MIC90 (Salmonella typhi): > 256 µg/mL
- MIC50 (Aeromonas hydrophila [30]): > 256 µg/mL
- MIC90 (Aeromonas hydrophila [30]): > 256 µg/mL
- MIC90 [31]: > 256 µg/mL
- Activity (Vibrio vulnificus [32]): 0%
- MIC50 (Salmonella enteritidis [33]): 1 µg/mL (≈ 2.86 µM)
- MIC90 (Salmonella enteritidis [33]): > 256 µg/mL
- MIC50 (Shigella flexneri): 128 µg/mL (≈ 366 µM)
- MIC90 (Shigella flexneri): > 256 µg/mL
- Activity (Aeromonas hydrophila [34]): 1%
- MIC50 (Shigella sonnei [35]): 128 µg/mL (≈ 366 µM)
- MIC90 (Shigella sonnei [35]): > 256 µg/mL
- Activity (Vibrio sp. [36]): 90%
- Activity (Escherichia coli [37]): 63%
- Activity (Vibrio sp. [38]): 0%
- MIC50 (Escherichia coli [39]): 2 µg/mL (≈ 5.72 µM)
- MIC90 (Escherichia coli [39]): > 256 µg/mL
- Activity (Plesiomonas shigelloides [40]): 0%
- MIC90 (Salmonella paratyphi): > 256 µg/mL
- MIC90 [41]: > 256 µg/mL
- Activity (Shigella sonnei [42]): 59.4%
- Activity (Shigella boydii [43]): 40.6%
- MIC50 [44]: 32 µg/mL (≈ 91.6 µM)
- MIC90 [44]: 32 µg/mL (≈ 91.6 µM)
- Activity [45]: 6.5%
- Activity (Vibrio fluvialis [46]): 90%
- Activity (Aeromonas veronii [47]): 98%
- Activity (Vibrio parahaemolyticus [48]): 90%
- MIC50 (Aeromonas sobria [49]): > 256 µg/mL
- MIC90 (Aeromonas sobria [49]): > 256 µg/mL
- Activity (Vibrio cholerae [50]): 0%
- Activity (Aeromonas hydrophila [51]): 98%
- MIC50 (Vibrio sp. [52]): 2 µg/mL (≈ 5.72 µM)
- MIC90 (Vibrio sp. [52]): 8 µg/mL (≈ 22.9 µM)
